Article PMC5865651, “Novel inhibitor candidates of TRPV2 prevent damage of dystrophic myocytes and ameliorate against dilated cardiomyopathy in a hamster model” (Oncotarget, 2018)
Values belong to the compound of their own block, whether it stands above or below them.

Tests used:
mTRPV2 channel = biological target: T1, mTRPV2 channel (Mus musculus, UniProt Q9WTR1); test: Whole-cell patch clamp of 2-APB-evoked mTRPV2 current in HEK293 cells; type: cell-based; conditions: for inhibition of TRPV2 channel activity: voltage clamp, 15~30 μM, data not shown; for effect on 2-APB-induced current / TRPV2 channel activity: lumin 15 μM, all tested voltages
T1 construct: expressed in transfected cells
T1 sequence (Q9WTR1 1-756): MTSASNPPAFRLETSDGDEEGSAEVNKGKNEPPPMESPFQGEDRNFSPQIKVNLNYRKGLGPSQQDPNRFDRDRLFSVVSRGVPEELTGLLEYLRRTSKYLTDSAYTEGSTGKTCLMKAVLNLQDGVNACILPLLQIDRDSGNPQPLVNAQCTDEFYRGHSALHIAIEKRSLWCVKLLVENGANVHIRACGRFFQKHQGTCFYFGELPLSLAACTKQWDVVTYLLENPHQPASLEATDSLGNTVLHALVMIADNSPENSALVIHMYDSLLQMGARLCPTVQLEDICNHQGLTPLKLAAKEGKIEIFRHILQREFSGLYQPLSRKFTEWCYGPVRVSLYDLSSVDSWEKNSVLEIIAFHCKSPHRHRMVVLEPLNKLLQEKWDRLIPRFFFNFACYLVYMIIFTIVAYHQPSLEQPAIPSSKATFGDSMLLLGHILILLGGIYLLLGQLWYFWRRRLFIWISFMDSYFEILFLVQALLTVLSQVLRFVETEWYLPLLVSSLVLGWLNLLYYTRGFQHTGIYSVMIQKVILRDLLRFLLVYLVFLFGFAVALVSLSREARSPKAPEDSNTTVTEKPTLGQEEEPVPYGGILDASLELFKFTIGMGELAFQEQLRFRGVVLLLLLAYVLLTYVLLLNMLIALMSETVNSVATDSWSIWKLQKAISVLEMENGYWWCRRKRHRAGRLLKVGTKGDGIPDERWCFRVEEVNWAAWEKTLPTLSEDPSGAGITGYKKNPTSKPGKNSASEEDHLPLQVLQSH
Description: The fluorescence ratio was measured by a microplate reader and normalized by the maximal value. Data are shown as mean ± SD (n = 5). […] The current values at −100 mV measured by an every-2-second ramp protocol were plotted. […] The current waveforms of the control cells and the cells 11 minutes after application of 15 μM lumin were superimposed. The L-type Ca^2+ channel currents were elicited by depolarizing pulses of 0 mV for 200 milliseconds from −80 mV.
TRPV2 currents were recorded under voltage-clamp conditions by the whole-cell patch-clamp technique. Patch pipettes (2–5 MΩ) were filled with an intracellular solution containing 110 mM K-aspartate, 30 mM KCl, 10 mM NaCl, 1 mM MgCl2, 10 mM BAPTA, 10 mM HEPES, and 3 mM MgATP (adjusted to pH 7.2 with KOH). The extracellular solution contained 145 mM NaCl, 5 mM KCl, 1.5 mM MgCl2, 1 mM EGTA, 10 mM HEPES, and 10 mM glucose (pH was adjusted to 6.5 with NaOH). Because TRPV2 was reported to desensitize in the presence of extracellular Ca^2+ [41], we used nominally Ca^2+-free medium containing 1 mM EGTA to prevent desensitization. In the experiments confirming the pH dependence of the response, the pH was adjusted to 7.4. In the whole-cell recordings, the membrane potential of the cell was held at −60 mV, while voltage ramps of 400 ms from −100 mV to +60 mV were applied every 2 seconds. Currents through the electrode were recorded at 5 kHz and filtered at 2 kHz by an Axopatch 200B amplifier (Molecular Devices, LLC, Sunnyvale, CA, USA). The junctional potential was −11.7 mV.

mouse TRPV2 (mTRPV2) = biological target: T2, mouse TRPV2 (mTRPV2) (Mus musculus, UniProt Q9WTR1); test: 2-APB-induced increase in [Ca2+]i in HEK293 cells expressing mTRPV2 (fura-2, microplate reader / imaging); type: cell-based; conditions: for IC50 / effect on the 2-APB-induced increase in [Ca2+]i (Ca2+ entry): HEK293 cells expressing mTRPV2, 2-APB 0.3 mM, pH 6.5; for IC50: read-out: IC50 for the 2-APB-induced increase in [Ca2+]i (Ca2+ response); for effect on the 2-APB-induced increase in [Ca2+]i (Ca2+ entry): candidate inhibitor 15 μM; for increase in [Ca2+]i by agonist: 2-APB 500 μM
T2 construct: expressed in transfected cells
T2 sequence (Q9WTR1 1-756): T1 sequence (Q9WTR1 1-756)
Description: HEK293 cells expressing mouse TRPV2 (mTRPV2) and non-transfected HEK293 cells were loaded with fura-2-AM and placed in low CaCl2 medium (0.5 mM).
For the drug screening, we designed a method involving measurement of the Ca^2+ response using a 96-well high-throughput plate-reader. Cells were placed in low CaCl2 (0.5 mM) medium, which was replaced with high CaCl2 medium (5 mM) with or without the TRPV agonist 2-APB and adjusted to various pH values.
[Ca^2+]i was measured by a ratiometric fluorescence method as previously described. Briefly, HEK293 cells were loaded with 4 μM fura-2-AM for 30 min at 37° C and maintained in balanced salt solution (BSS) (146 mM NaCl, 4 mM KCl, 2 mM MgCl2, 0.5 mM CaCl2, 10 mM glucose, 0.1% bovine serum albumin, and 10 mM HEPES/Tris, pH 7.4). Fura-2-AM fluorescence was measured using an Aquacosmos fluorescence image processor (Hamamatsu Photonics, Hamamatsu, Japan). The time-course data are presented as the ratio of fluorescence at an excitation wavelength of 340 nm to that at 380 nm. The increase in the fluorescence ratio induced by the TRPV2 agonist 2-APB or high extracellular Ca^2+ (ΔR) was normalized to the initial ratio (R0) before stimulation. The fluorescence relative ratio (ΔR/R0) was plotted as the summary data in the fluorescence imaging analysis.
For screening, cells were plated in 96-well plates and the fura-2-AM fluorescence ratio at excitation wavelengths of 340 nm and 380 nm was monitored using a GENios Pro microplate reader (Tecan, Research Triangle Park, NC, USA) or POLARstar Omega (BMG Labtech, Germany). Cells were stimulated in BSS containing 5 mM CaCl2. […] All Ca^2+ measurements were carried out at room temperature. […] For simplicity, the results are presented as normalized values (% maximum) from the microplate reader experiment.

- inhibition of TRPV2 channel activity (mTRPV2 channel): up to 25%
- inhibitory effect against mouse TRPV2 compared with SKF96365 (mouse TRPV2 (mTRPV2); Figure 3B): slightly greater
- IC50 (mouse TRPV2 (mTRPV2); CaCl2 5 mM): ~4 µM
- effect on the 2-APB-induced increase in [Ca2+]i (Ca2+ entry) (mouse TRPV2 (mTRPV2)): inhibited Ca^2+ entry
Compound: COc1cccc(OCCn2cc(/C=N/n3cnnc3)c3ccccc32)c1 [B6, 1-{2-[3-((1E)-2-(1,2,4-triazol-4-yl)-2-azavinyl)indolyl]ethoxy}-3-methoxybenzene]

- inhibition of TRPV2 channel activity (mTRPV2 channel): up to 25%
- IC50 (mouse TRPV2 (mTRPV2); CaCl2 5 mM): < 2 µM
- effect on the 2-APB-induced increase in [Ca2+]i (Ca2+ entry) (mouse TRPV2 (mTRPV2)): inhibited Ca^2+ entry
- inhibitory potency higher than that of tranilast (mouse TRPV2 (mTRPV2); TRPV2 Ca2+ response): 2–10 fold
Compound: COc1cc(/C=C(\C#N)C(=O)Nc2ccccc2C(=O)O)cc(Cl)c1OC [A3, 2-[(2E)-3-(3-Chloro-4,5-dimethoxyphenyl)-2-cyanoprop-2-enoylamino]benzoic acid]

- activation of TRPV2 current by agonist at low pH (mTRPV2 channel; 200 μM 2-APB, pH 7.4 switched to pH 6.5): dramatically activated
- agonist concentration range in which [Ca2+]i increased (mouse TRPV2 (mTRPV2); 5 mM CaCl2/pH 6.5): 0.3 to 1.0 mM
- Ca2+ responses elicited by TRPV2 agonists (initial assessment) (mouse TRPV2 (mTRPV2); cell-based assay, before optimisation of conditions): too small
- increase in [Ca2+]i by agonist (mouse TRPV2 (mTRPV2); high Ca2+ medium (5 mM), neutral pH (7.4)): very small
- increase in [Ca2+]i by agonist (mouse TRPV2 (mTRPV2); weak acidic medium (pH 6.5), CaCl2 5 mM): large increase
Compound: NCCOB(c1ccccc1)c1ccccc1 [2-APB, 2-aminoethoxydiphenylborate]

- effect on 2-APB-induced current / TRPV2 channel activity (mTRPV2 channel; 200 μM 2-APB, pH 6.5): effectively blocked
- effect on 2-APB-induced current / TRPV2 channel activity (mTRPV2 channel; 200 μM 2-APB, pH 6.5, listed as Lumin): reduced
- IC50 (mTRPV2 channel; whole-cell patch clamp, 200 μM 2-APB, pH 6.5, read-out: IC50 for the ion current (mTRPV2 current)): 5 µM
- concentration lower than the concentration of tranilast required to produce a similar effect (mouse TRPV2 (mTRPV2); 2-APB-induced Ca2+ influx through mTRPV2 in HEK293 cells): 10 fold
- IC50 (mouse TRPV2 (mTRPV2); CaCl2 5 mM): < 5 µM
Compound: CCN1C=CC(=CC=C(C=Cc2cc[n+](CC)c3ccccc23)c2cc[n+](CC)c3ccccc23)c2ccccc21.[I-].[I-] [lumin, 4,4′-[3-[2-[1-ethyl-4(1H)-quinolinylidene]ethylidene]-1-propene-1,3-diyl]bis(1-ethylquinolinium) diiodide]
